Results as given in patent publication US20190177279A1, “CARBOXYLIC ACID AROMATIC 1,2-CYCLOPROPYLAMIDES” (Bayer Pharma Aktiengesellschaft, priority 2017, published 2019).

Experiments:
IL-8 secretion = experiment: Bradykinin B1 receptor agonist-induced secretion of IL-8 in human IMR-90 cells; format: cell-based; settings: 0.1 μM Lys-[Des-Arg9]Bradykinin and 0.1 μM Sar-[D-Phe8]-des-Arg9-Bradykinin, 5 hours
Excerpt: (§1) Inhibitory Activity on Bradykinin B1 Receptor Agonist-Induced Secretion of IL-6 and IL-8 in Human IMR-90 Cells
(§2) The effect of the compound examples on secretion of the cytokine IL-6 and IL-8 was investigated in the human foetal lung fibroblast IMR-90 cell line. Here the induction of the cytokine secretion was induced by the Bradykinin B1 receptor agonists Lys-[Des-Arg9]Bradykinin (CAS 71800-36-7, Tocris Bioscience) and Sar-[D-Phe8]-des-Arg9-Bradykinin (CAS 126959-88-4, Tocris Bioscience) leading to the activation of the Bradykinin B1-driven signalling pathway. […]
(§3) IMR-90 cells were cultured in Eagle's Minimum Essential Medium (EMEM) containing 2 mM L-glutamine, 1 g/L glucose, 1.5 g/L NaHCO3, 1 mM sodium pyruvate and non-essential amino acids (ATCC, 30-2003™) supplemented with 10% FBS (Biochrom, 50615) and 50 U/mL Penicillin, 50 μg/mL Streptomycin (PAA, P11-010). […] The compound examples were serially diluted in 100% DMSO and evaluated at 8 different concentrations within the range of 3 nM and 10 μM and a final DMSO concentration of 0.4%. […] The amount of IL-6 and IL-8 in the supernatant was determined using the Human ProInflammatory Panel II (4-Plex) (MSD, K15025B) according to manufacturer's instruction. […] The cell viability was measured using the CellTiter-Glo Luminescent Assay (Promega, G7571) following the manufacturers protocol. […]

IL-6 secretion = experiment: Bradykinin B1 receptor agonist-induced secretion of IL-6 in human IMR-90 cells; format: cell-based; settings: 0.1 μM Lys-[Des-Arg9]Bradykinin and 0.1 μM Sar-[D-Phe8]-des-Arg9-Bradykinin, 5 hours
Excerpt: as §1, §2, §3

- IC50 (IL-8 secretion): 185 nM
- IC50 (IL-6 secretion): 322 nM
SMILES: O=C(O)c1cc(NC(=O)C2CC2c2ccc(Cl)cc2)cc(F)c1-c1cnn(C2CCC2)c1 (racemic) [Example 2, 5-({[2-(4-chlorophenyl)cyclopropyl]carbonyl}amino)-2-(1-cyclobutyl-1H-pyrazol-4-yl)-3-fluorobenzoic acid]
